Among the data in the supplement of paper PMC10307832 are relative viability values, retold here.

What all share (experiment): relative viability (nuclei count vs DMSO), 5 days (fraction); higher = more cells survive
Compound in test [1]: O=C(CCCCCCNC(=O)c1cnc(N(c2ccccc2)c2ccccc2)nc1)NO [Ricolinostat] + CC(=O)Nc1cccc(-n2c(=O)n(C3CC3)c(=O)c3c(Nc4ccc(I)cc4F)n(C)c(=O)c(C)c32)c1 [Trametinib] (partner 0.02 µM)
The procedure, abridged:
(§1)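 Lung cancer cell lines in 1536-well plates got either a single drug or a fixed anchor-drug dose together with five library-drug doses (not always all listed) in √10 steps, by pin tool, on the day after seeding. Nuclei were counted after 5 days, and relative viability is the treated-to-vehicle ratio of nuclei counts. Values are medians of duplicate plates.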

Compound in test [2]: O=C(CCCCCCNC(=O)c1cnc(N(c2ccccc2)c2ccccc2)nc1)NO [Ricolinostat] + CS(=O)(=O)N1CCN(Cc2cc3nc(-c4cccc5[nH]ncc45)nc(N4CCOCC4)c3s2)CC1 [Pictilisib] (partner 1 µM)
The gist of the method:
as §1

Compound in test [3]: C1=CC=C(C(=C1)C2=CC=C(C=C2)C3=CSC4=C3C(=C(C(=O)N4)C#N)O)O + CC1(C)CCC(c2ccc(Cl)cc2)=C(CN2CCN(c3ccc(C(=O)NS(=O)(=O)c4ccc(N[C@H](CCN5CCOCC5)CSc5ccccc5)c(S(=O)(=O)C(F)(F)F)c4)cc3)CC2)C1 [Navitoclax] (partner 0.5 µM)
The procedure, abridged: as §1

Compound in test [4]: CC1=CN2C(=O)C=C(N=C2C(=C1)C(C)NC3=CC=CC=C3)N4CCOCC4 [TGX 221] + Cc1nc(Nc2ncc(C(=O)Nc3c(C)cccc3Cl)s2)cc(N2CCN(CCO)CC2)n1 [Dasatinib] (partner 0.075 µM)
The gist of the method:
as §1

NCI-H1792: the relative viability in test [1] (first compound 0.253 µM) came to 0.486; in test [1] (first compound 0.8 µM) it was 0.418; in test [1] (first compound 2.53 µM), 0.468; in test [2] (first compound 0.08 µM), 0.248; in test [2] (first compound 0.253 µM) it was 0.281; in test [2] (first compound 0.8 µM), 0.243. The relative viability in test [2] (first compound 2.53 µM) amounted to 0.169; in test [3] (first compound 0.253 µM) it was 0.441; in test [3] (first compound 0.8 µM), 0.354; in test [3] (first compound 2.53 µM) it was 0.704; in test [3] (first compound 8 µM) it was 0.276; in test [4] (first compound 0.08 µM), 0.831. Also, the relative viability in test [4] (first compound 0.253 µM) came out at 0.699; in test [4] (first compound 0.8 µM), 0.785; in test [4] (first compound 2.53 µM) it was 0.7; in test [4] (first compound 8 µM), 0.503.
